# Experimental data from patent US11466044B2 (WAYNE STATE UNIVERSITY, priority 2017, dated 2022).
# Counter-ions that a name gives are not always drawn. Like-named read-outs stand apart in the source and are kept apart here.
# Tests used:
# E coli wild type = assay: MIC by broth microdilution, wild type E coli; assay type: cell-based; settings: for MIC / MIC50: Escherichia coli; for MIC50: Table 1 (Example 1)
# [1] = system: Enterobacter cloacae AG290; assay: MIC by broth microdilution, Enterobacter cloacae; assay type: cell-based; settings: strain AG290 Enterobacter cloacae; read-out: MIC AG290 E. cloacae
# [2] = system: Klebsiella pneumonia AG215; assay: MIC by broth microdilution, Klebsiella pneumonia; assay type: cell-based; settings: Klebsiella pneumoniae; strain AG215 Klebsiella pneumonia; read-out: MIC AG215 K. pneumon
# [3] = system: mitochondrial ribosome (human chimeric); assay type: biochemical; settings: mitochondrial, read-out: IC50 Mit
# Source text: (§1) The antiribosomal activity of these compounds was investigated with cell-free translation assays using both wild type bacterial ribosomes and hybrid ribosomes carrying eukaryotic decoding A sites enabling the prediction of selectivity.
# [4] = system: cytosolic ribosome (human chimeric); assay type: biochemical; settings: cytosolic, read-out: IC50 Cyt
# Source text: as §1
# M. smegmatis SZ380 = assay: MIC by broth microdilution, M. smegmatis
# [5] = system: E coli carrying specific resistance determinants; assay: MIC by broth microdilution, E coli carrying specific resistance determinants; assay type: cell-based; settings: Escherichia coli
# [6] = system: wild type bacterial ribosomes; assay: in-vitro translation assay, bacterial ribosomes; assay type: biochemical; settings: bacterial ribosome, read-out: IC50 Bac
# Source text: as §1
# N. gonorrhoeae = assay: Disk diffusion, N. gonorrhoeae; assay type: cell-based; settings: Neisseria gonorrhoeae
# MRSA = assay: MIC by broth microdilution, MRSA isolates; assay type: cell-based; settings: for MIC50: Staphylococcus aureus, MRSA
# P aeruginosa = assay: MIC by broth microdilution, P aeruginosa isolates; assay type: cell-based, Pseudomonas aeruginosa; settings: for MIC: strain AG220 Pseudomonas aeruginosa ATCC27853, read-out: MIC AG220 P. aerugin; for MIC50: Pseudomonas aeruginosa
# [7] = system: Acinetobacter baumannii pittii AG225; assay: MIC by broth microdilution, Acinetobacter baumannii; assay type: cell-based; settings: strain AG225 Acinetobacter baumannii pittii
# [8] = ATCC25922, strain AG212 E. coli (ATCC25922), read-out: MIC AG212 E. coli
smiles,measurement,setting,value
"CC1CC(O)C2O[C@H](O[C@@H]3C(N)C[C@@H](N)C(O)[C@H]3O[C@@H]3O[C@H](CO)[C@H](O[C@H]4O[C@@H](CN)[C@@H](O)C(O)C4N)C3O)C(N)[C@@H](O)[C@@H]2O1 (stereo partly drawn) [Compound 125, 4-O-(2′-Amino-4′,8′-anhydro-2′,7′,9′-trideoxy-D-threo-α-D-gluco-nonapyranosyl)-5-O-[3-O-(2,6-diamino-2,6-dideoxy-β-L-idopyranosyl)-β-D-ribofuranosyl]-2-deoxystreptamine.5AcOH]",MIC50 E coli BM13 (AG06) wt,"E coli wild type; BM13 (AG06) wt, Table 2A (Example 2)",2 µg/mL
same,MIC,E coli wild type; [8],2 µg/mL
same,MIC WT,"E coli wild type; WT, Table 3 (Example 2)",1 to 2 µg/mL
same,MIC50 E coli pH430 WT,"E coli wild type; pH430 WT, Table 2B (Example 2)",1-2 μg/ml
same,MIC50 E coli AG01,"E coli wild type; strain AG01, Table 1 (Example 2)",8 µg/mL
same,MIC50 E coli AG03,"E coli wild type; strain AG03, Table 1 (Example 2)",8 µg/mL
same,MIC50 E coli AG55,"E coli wild type; strain AG55, Table 1 (Example 2)",8 µg/mL
same,MIC,[1],2 µg/mL
same,MIC,[2],2 µg/mL
same,IC50,[3]; Table 3 (Example 2),312 µM
same,IC50,[4]; Table 3 (Example 2),30 µM
same,MIC SZ380 M. smegmatis,M. smegmatis SZ380; strain SZ380 Mycobacterium smegmatis,0.5 µg/mL
same,MIC50,"[5]; read-out: MIC50 E coli AG07 AAC(3), AG07 AAC(3), Table 2A (Example 2)",8 µg/mL
same,MIC50,"[5]; read-out: MIC50 E coli AG09 AAC(6′), AG09 AAC(6′), Table 2A (Example 2)",4 µg/mL
same,MIC50,"[5]; read-out: MIC50 E coli AG036 ANT(4′,4″), AG036 ANT(4′,4″), Table 2A (Example 2)",2 to 4 µg/mL
same,MIC50,"[5]; read-out: MIC50 E coli AG036 ANT(4′,4″), AG036 ANT(4′,4″), Table 2B (Example 2)",0.5 µg/mL
same,MIC50,"[5]; read-out: MIC50 E coli AG037 APH(3′)-III, AG037 APH(3′)-III, Table 2B (Example 2)",16 µg/mL
same,MIC50,"[5]; read-out: MIC50 E coli AG037 APH(3′,5″), AG037 APH(3′,5″), Table 2A (Example 2)",32 to 64 µg/mL
same,MIC50,"[5]; read-out: MIC50 E coli AG103 ArmA, AG103 ArmA, Table 2A (Example 2)",4 µg/mL
same,MIC50,"[5]; read-out: MIC50 E coli AG103 armA, AG103 armA, Table 2B (Example 2)",1 to 2 µg/mL
same,MIC50,"[5]; read-out: MIC50 E coli AG105 AAC(2′), AG105 AAC(2′), Table 2A (Example 2)",2 to 4 µg/mL
same,MIC50,"[5]; read-out: MIC50 E coli pH414 AAC(6′)-I, pH414 AAC(6′)-I, Table 2B (Example 2)",1 µg/mL
same,MIC50,"[5]; read-out: MIC50 E coli pH415 AAC(6′)-II, pH415 AAC(6′)-II, Table 2B (Example 2)",1 to 2 µg/mL
same,MIC50,"[5]; read-out: MIC50 E coli pH421 APH(3′)-I, pH421 APH(3′)-I, Table 2B (Example 2)",> 32 µg/mL
same,MIC50,"[5]; read-out: MIC50 E coli pH422 APH(3′)-II, pH422 APH(3′)-II, Table 2B (Example 2)",4 µg/mL
same,MIC50,"[5]; read-out: MIC50 E coli pH423 APH(3)-VI, pH423 APH(3)-VI, Table 2B (Example 2)",2 µg/mL
same,MIC50,"[5]; read-out: MIC50 E coli pH432 ANT(4′), pH432 ANT(4′), Table 2B (Example 2)",1 to 2 µg/mL
same,MIC,[5]; read-out: MIC AAC(6′),1 to 2 µg/mL
same,MIC,[5]; read-out: MIC ANT(4′),0.5 µg/mL
same,MIC,[5]; read-out: MIC APH(3′)-II,4 µg/mL
same,MIC,[5]; read-out: MIC APH(3′)-VI,2 µg/mL
same,IC50,[6]; Table 3 (Example 2),0.04 µM
same,zone of inhibition at 25 nmol/disc,N. gonorrhoeae,9 mm
same,MIC50 MRSA AG38,"MRSA; strain AG38, Table 1 (Example 2)",8 to 16 µg/mL
same,MIC50 MRSA AG39,"MRSA; strain AG39, Table 1 (Example 2)",8 µg/mL
same,MIC50 MRSA AG42,"MRSA; strain AG42, Table 1 (Example 2)",8 µg/mL
same,MIC50 MRSA AG44,"MRSA; strain AG44, Table 1 (Example 2)",4 µg/mL
same,MIC50 P aeruginosa AG31,"P aeruginosa; strain AG31, Table 1 (Example 2)",32 µg/mL
same,MIC50 P aeruginosa AG32,"P aeruginosa; strain AG32, Table 1 (Example 2)",16 to 32 µg/mL
same,MIC50 P aeruginosa AG33,"P aeruginosa; strain AG33, Table 1 (Example 2)",>128 µg/mL
same,MIC50 P aeruginosa AG86,"P aeruginosa; strain AG86, Table 1 (Example 2)",>128 µg/mL
same,MIC,P aeruginosa,8 µg/mL
same,MIC,[7],4 µg/mL
"NC[C@@H]1O[C@H](O[C@@H]2C(O)[C@H](O[C@@H]3C(O)[C@H](N)CC(N)[C@H]3O[C@H]3OC(CO)[C@@H](O)[C@H](O)C3N)O[C@@H]2CNC=O)C(N)C(O)[C@@H]1O (stereo partly drawn) [Compound 137, 5″-Deoxy-5″-formamido-paromomycin acetate salt]",MIC,"E coli wild type; AG006 wt, Table 2 (Example 1), read-out: MIC E coli AG006 wt",1 µg/mL
same,MIC,"E coli wild type; AG102 wt, Table 2 (Example 1), read-out: MIC E coli AG102 wt",1 µg/mL
same,MIC,"E coli wild type; AG160 wt, Table 2 (Example 1), read-out: MIC E coli AG160 wt",2 µg/mL
same,MIC,E coli wild type; [8],2 µg/mL
same,MIC,"E coli wild type; WT, Table 3 (Example 1), read-out: MIC WT",1 to 2 µg/mL
same,MIC,"E coli wild type; clinical isolate AG160 WT, Table 2 (Example 4), read-out: MIC AG160 E. coli WT",2 µg/mL
same,MIC,"E coli wild type; engineered strain pH430 WT, Table 2 (Example 4), read-out: MIC pH430 E. coli WT",1 to 2 µg/mL
same,MIC50,"E coli wild type; strain AG01, read-out: MIC50 E coli AG01",4 µg/mL
same,MIC50,"E coli wild type; strain AG03, read-out: MIC50 E coli AG03",4 µg/mL
same,MIC50,"E coli wild type; strain AG55, read-out: MIC50 E coli AG55",4 µg/mL
same,MIC,[1],1 to 2 µg/mL
same,MIC,[2],1 µg/mL
same,IC50,[3]; Table 3 (Example 1),144 µM
same,IC50,[4]; Table 3 (Example 1),90 µM
same,MIC,"M. smegmatis SZ380; Mycolicibacterium smegmatis, SZ380, read-out: MIC SZ380 M. smegmatis, strain SZ380 Mycobacterium smegmatis",1 µg/mL
same,MIC,[5]; read-out: MIC AG037 E. coli APH(3′)-III,128 µg/mL
same,MIC,[5]; read-out: MIC AG163 E. coli APH(3′)-I,64 µg/mL
same,MIC,[5]; read-out: MIC AG166 E. coli APH(3′)-II,> 128 µg/mL
same,MIC,[5]; read-out: MIC APH(3)-VI,> 64 µg/mL
same,MIC,[5]; read-out: MIC APH(3′)-I,> 64 µg/mL
same,MIC,[5]; read-out: MIC APH(3′)-II,> 64 µg/mL
same,MIC,[5]; read-out: MIC APH(3′)-III,> 64 µg/mL
same,MIC,[5]; read-out: MIC E coli AG007 ANT(3″) AAC(3)-I,4 µg/mL
same,MIC,[5]; read-out: MIC E coli AG103 ArmA,8 µg/mL
same,MIC,[5]; read-out: MIC E coli AG163/164 APH(3′)-Ia,32 to 64 µg/mL
same,MIC,[5]; read-out: MIC E coli AG166 APH(3′)-IIa,> 128 µg/mL
same,MIC,[5]; read-out: MIC pH421 E. coli APH(3′)-I,> 64 µg/mL
same,MIC,[5]; read-out: MIC pH422 E. coli APH(3′)-II,> 64 µg/mL
same,MIC,[5]; read-out: MIC pH423 E. coli APH(3′)-VI,> 64 µg/mL
same,IC50,[6]; Table 3 (Example 1),0.04 µM
same,zone of inhibition at 25 nmol/disc,N. gonorrhoeae,11 mm
same,MIC50,MRSA; read-out: MIC50 MRSA AG39,> 128 µg/mL
same,MIC50,MRSA; read-out: MIC50 MRSA AG42,> 128 µg/mL
same,MIC50,"MRSA; strain AG38, Table 1 (Example 1), read-out: MIC50 MRSA AG38",4 µg/mL
same,MIC50,"MRSA; strain AG44, Table 1 (Example 1), read-out: MIC50 MRSA AG44",2 to 4 µg/mL
same,MIC50,P aeruginosa; read-out: MIC50 P aeruginosa AG31,128 µg/mL
same,MIC50,P aeruginosa; read-out: MIC50 P aeruginosa AG32,128 µg/mL
same,MIC50,P aeruginosa; read-out: MIC50 P aeruginosa AG33,> 128 µg/mL
same,MIC50,P aeruginosa; read-out: MIC50 P aeruginosa AG86,> 128 µg/mL
same,MIC,P aeruginosa,> 64 µg/mL
same,MIC,[7],2 µg/mL
